This note sets out measurements from publication PMC4912613, “A broad analysis of resistance development in the malaria parasite” (Nature Communications, 2016).

Experiment [1] deals with NITD609-R2 (PfATP4 T418N and P990R, parent Dd2). In words: Cross-resistance EC50 assay, NITD609-R2. It counts as cell-based. The conditions noted are these: Plasmodium falciparum, SYBR green 72 hour assay, asynchronized parasites, 96-well or 1536-well format. The text has this:
(§1) To evaluate potential overlapping activity against known antimalarial drug targets, we performed dose-response studies with each compound against our assembled set of drug-resistant lines and their corresponding parents, in an asexual blood stage proliferation assay (Table 1). Comparisons were made to the drug-sensitive strain 3D7 when a parent was unavailable (TM90C2A, W2 and Dd2). As laboratories conducted EC50 assays with different strains and protocols, all comparisons were made between assays from the same laboratory and under the same assay conditions. Compounds displaying >5-fold EC50 shifts relative to the parent or sensitive strain were flagged as having potentially non-novel targets. Average fold shifts per strain ranged from 0.82 to 2.34, with a median of 1.23 indicating there was not common resistance to any one resistant clone. No resistance patterns were observed when classifying the compounds based on chemical structure, but this was not surprising given the diversity of compounds chosen. On the other hand, given that these confirmed compounds were derived from larger unconfirmed hit lists to which some filtration criteria may have been applied (for example, elimination of obvious dihydrofolate reductase inhibitors[32]), some[10][11][12][13] pre-existing bias may exist in the set. […]
(§2) Alternatively, a SYBR Green-based proliferation approach was used for the 72-h assay, as previously described. Briefly, a culture of either synchronized or asynchronous parasitized RBCs (0.3% parasitemia and 4% haematocrit) in screening medium (identical to supplemented medium above except no serum was added) was exposed to serial drug dilutions. Plates were incubated at 37 °C and gassed with 93% N2, 4% CO2 and 3% O2 for 72 h. Following incubation, 10 × SYBR Green I (Invitrogen; supplied in 10,000 × concentration) in lysis buffer ([…], 5 mM EDTA, 0.16% Saponin wt per vol and 1.6% Triton X vol per vol) was added to the wells and the plates were incubated overnight at room temperature before plate reading. EC50 assays were repeated three times, taking the average EC50 value from each assay set, and removing any outliers using a single iteration of Grubbs' test, eliminating values with z-scores above the critical z-value (α=0.05). The raw EC50 values for synchronized parasites assayed in a 384-well format are listed in Supplementary Data 4. The raw EC50 values for asynchronous parasites assayed in a 96 or 1536-well format are listed in Supplementary Data 5.
(§3) EC50 values for each strain were compared with those of the corresponding parent strain to determine fold-shift changes and identify resistance. To minimize the cause variance between assays, all comparisons were conducted between strains assayed under identical conditions. A one-way ANOVA followed by a Dunnet's post-test was conducted in GraphPad Prism to identify significant changes between the parent and resistant strain.

In experiment [2] the test system is DHODH (E182D, parent 3D7). The experiment can be described thus: Cross-resistance EC50 assay, DHODH. It is filed as cell-based. The conditions noted are these: Plasmodium falciparum; SYBR green 72 hour assay; synchronized parasites; 384-well format; strain DHODH (3D7 parent).
From the text: as §1, §2, §3

The test system of another experiment is P. falciparum. The experiment can be described thus: Rate of killing (parasite viability) assay. It counts as cell-based, Plasmodium falciparum. The conditions noted are these: profile compared with chloroquine, pyrimethamine, atovaquone; 48 h treatment. In a few lines: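 Parasites exposed to compound for 48 h, then washed and given fresh labelled erythrocytes; invasion used as viability surrogate. Double-stained erythrocytes (RBC plus parasite DNA label) counted to give percent survival; time-course profiles benchmarked against chloroquine, pyrimethamine and atovaquone.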

A further experiment relates to PfCRT-Q352R (parent Dd2). The experiment can be described thus: Cross-resistance EC50 assay, PfCRT-Q352R. It is filed as cell-based. The conditions noted are these: Plasmodium falciparum, DD2, 72 h, read-out: PfCRT:Q352R (Dd2 Parent) Average EC50.
From the text: as §1, §2, §3

A further experiment relates to hsp90 (D88Y, parent Dd2). In words: Cross-resistance EC50 assay, hsp90. It is filed as cell-based. To be noted: Plasmodium falciparum; SYBR green 72 hour assay; synchronized parasites; 384-well format; strain HSP90 (Dd2 parent).
From the text: as §1, §2, §3

For `Cc1ccc(Cn2c(N3CCC(C(=O)NCc4cccs4)CC3)nc3ccccc32)cc1` [MMV007564], the EC50 (as a rule, the concentration at which the effect is half-maximal) worked out at 0.705 µM in experiment [1]; 631 nM in experiment [2]; 430 nM in the experiment with PfCRT-Q352R (parent Dd2); 710 nM in the experiment with hsp90 (D88Y, parent Dd2). For the same compound, in the experiment with P. falciparum, the “Killing Rate” value is listed as “PYR/CQ (moderate)”.
